Results from publication PMC10120463 (Journal of Enzyme Inhibition and Medicinal Chemistry, 2023).

Experiment: Haemolysis assay
Type: cell-based
Details: rabbit, rabbit red blood cell suspension

In the case of C[C@@H]1[C@H](O)[C@@H](C)/C=C/C=C/C=C/C=C/C=C/C=C/C=C/[C@H](O[C@@H]2O[C@H](C)[C@@H](O)[C@H](N)[C@@H]2O)C[C@@H]2O[C@](O)(C[C@@H](O)C[C@@H](O)[C@H](O)CC[C@@H](O)C[C@@H](O)CC(=O)O[C@H]1C)C[C@H](O)[C@H]2C(=O)O [AmB, amphotericin B], the hemolysis at 1 h, 32 µg/mL is reported as 53.5%.
